What was measured:
[1] = storage at 80° C. for one month, color changes; type: physicochemical
[2] = water absorption (sorption isotherm) at 25° C. and 90% r.h.; type: physicochemical
Experimental: Thus, the pure active substance absorbs less than 0.1% of water at 25° C. at 90% r.h., as indicated by the sorption isotherm shown in FIG. 1. […] The topiramate according to the invention is therefore particularly suitable for the preparation of pharmaceutical formulations. The tablet formulations according to the invention which are obtainable by direct compression absorb less moisture than commercially available tablets. […] In contrast, topiramate tablets according to the invention, as in example 1 below, absorb only 5.5% of water under the same conditions.

color changes on storage [1]: no color changes
water absorbed [2]: less than 0.1%
SMILES: CC1(C)O[C@@H]2[C@@H](CO[C@@]3(COS(N)(=O)=O)OC(C)(C)O[C@@H]23)O1 [topiramate, 2,3:4,5-bis-O-(1-methylethylidene)-β-D-fructopyranose sulfamate]
